Measurements as given in ChEMBL document CHEMBL4177722, “Small molecule inhibitors of anthrax edema factor” (Bioorg Med Chem Lett, 2018).

How the values were obtained:
[1] = molecular target: T1, Calmodulin-sensitive adenylate cyclase (Bacillus anthracis) (UniProt P40136); assay: Inactivation of Bacillus anthracis edema factor assessed as inactivation rate constant in presence of CaM incubated for 10 to 240 mins by EnzChek pyrophosphate assay
T1 sequence (whole entry): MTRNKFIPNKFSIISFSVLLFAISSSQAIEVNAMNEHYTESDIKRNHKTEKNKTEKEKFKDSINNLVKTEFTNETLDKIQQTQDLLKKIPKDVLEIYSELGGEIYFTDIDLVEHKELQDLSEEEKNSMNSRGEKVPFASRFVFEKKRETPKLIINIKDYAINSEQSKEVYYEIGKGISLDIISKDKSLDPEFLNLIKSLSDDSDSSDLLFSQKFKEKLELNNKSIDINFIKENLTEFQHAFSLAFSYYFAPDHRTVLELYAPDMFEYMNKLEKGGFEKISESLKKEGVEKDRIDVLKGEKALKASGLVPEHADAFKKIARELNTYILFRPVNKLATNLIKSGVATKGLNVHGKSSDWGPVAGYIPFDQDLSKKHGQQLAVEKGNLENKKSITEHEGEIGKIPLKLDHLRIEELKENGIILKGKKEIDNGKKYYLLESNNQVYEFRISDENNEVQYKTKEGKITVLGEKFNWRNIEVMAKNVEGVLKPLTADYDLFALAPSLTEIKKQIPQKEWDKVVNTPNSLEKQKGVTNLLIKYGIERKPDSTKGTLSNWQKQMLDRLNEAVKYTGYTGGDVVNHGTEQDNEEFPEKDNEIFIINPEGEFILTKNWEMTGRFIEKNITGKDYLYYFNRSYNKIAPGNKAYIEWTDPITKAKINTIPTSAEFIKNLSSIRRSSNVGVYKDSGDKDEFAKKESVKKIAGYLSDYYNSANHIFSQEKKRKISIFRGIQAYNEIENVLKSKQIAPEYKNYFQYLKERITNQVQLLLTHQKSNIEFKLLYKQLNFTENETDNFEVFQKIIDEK

[2] = molecular target: T1, Calmodulin-sensitive adenylate cyclase (Bacillus anthracis); assay: Inactivation of Bacillus anthracis edema factor assessed as Kinact/Ki ratio in presence of CaM incubated for 10 to 240 mins by EnzChek pyrophosphate assay relative to FSBA
[3] = molecular target: T2, Calmodulin-sensitive adenylate cyclase (Bacillus anthracis, UniProt P40136); assay: Inactivation of Bacillus anthracis edema factor in presence of CaM incubated for 10 to 240 mins by EnzChek pyrophosphate assay
T2 sequence (P40136 whole entry): T1 sequence (whole entry)

RAW264.7 [4] = assay: Cytotoxicity against mouse RAW264.7 cells assessed a reduction in cell viability incubated for 24 hrs in absence of 10% FBS by MTT assay; format: cell-based; details: raw264.7, 24 h
[5] = (§1) Cytotoxicity against mouse RAW264.7 cells assessed a reduction in cell viability incubated for 24 hrs in presence of 10% FBS by MTT assay; format: cell-based; details: RAW264.7 cells
[6] = molecular target: T1, Calmodulin-sensitive adenylate cyclase (Bacillus anthracis); assay: Inactivation of Bacillus anthracis edema factor assessed as Kinact/Ki ratio in presence of CaM incubated for 10 to 240 mins by EnzChek pyrophosphate assay
[7] = Stability in C57BL/6 mouse plasma assessed as half life at 10 uM by LC-MS method; format: ADME, cell-free, C57B/6
RAW264.7 [8] = assay: as §1; format: cell-based; details: raw264.7, 24 h
[9] = molecular target: Mitogen-activated protein kinase 14 (Homo sapiens) (UniProt Q16539); assay: Inhibition of human p38alpha at 10 uM by ADP-Glo kinase assay
[10] = molecular target: Casein kinase I isoform gamma-1 (Homo sapiens) (UniProt Q9HCP0); assay: Inhibition of human CK1g1 at 10 uM by ADP-Glo kinase assay
[11] = molecular target: T3, Inhibitor of nuclear factor kappa-B kinase subunit beta (Homo sapiens) (UniProt O14920); assay: Inhibition of human IKKbeta at 10 uM by ADP-Glo kinase assay
T3 sequence (whole entry): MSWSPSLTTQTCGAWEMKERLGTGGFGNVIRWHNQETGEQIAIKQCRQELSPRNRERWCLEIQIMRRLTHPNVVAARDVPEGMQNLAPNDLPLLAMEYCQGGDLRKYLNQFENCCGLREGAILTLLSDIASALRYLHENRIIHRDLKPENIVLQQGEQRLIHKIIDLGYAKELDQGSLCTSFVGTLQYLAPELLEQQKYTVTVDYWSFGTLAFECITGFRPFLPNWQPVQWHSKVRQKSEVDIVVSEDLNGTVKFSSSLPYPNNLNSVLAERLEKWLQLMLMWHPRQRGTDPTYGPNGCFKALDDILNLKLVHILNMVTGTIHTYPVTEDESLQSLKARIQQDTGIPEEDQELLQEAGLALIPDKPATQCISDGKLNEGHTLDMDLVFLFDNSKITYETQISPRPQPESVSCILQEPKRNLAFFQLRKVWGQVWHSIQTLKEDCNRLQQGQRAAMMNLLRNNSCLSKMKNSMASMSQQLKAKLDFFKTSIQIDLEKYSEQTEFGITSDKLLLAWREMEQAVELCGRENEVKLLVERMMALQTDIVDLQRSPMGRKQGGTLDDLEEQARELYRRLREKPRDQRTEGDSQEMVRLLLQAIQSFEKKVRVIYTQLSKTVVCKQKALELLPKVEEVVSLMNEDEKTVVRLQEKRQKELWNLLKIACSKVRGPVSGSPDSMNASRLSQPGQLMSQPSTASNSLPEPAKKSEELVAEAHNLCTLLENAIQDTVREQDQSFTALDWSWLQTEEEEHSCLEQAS

[12] = molecular target: Casein kinase I isoform alpha (Homo sapiens) (UniProt P48729); assay: Inhibition of human CK1a1 at 10 uM by ADP-Glo kinase assay
[13] = molecular target: RAC-alpha serine/threonine-protein kinase (Homo sapiens) (UniProt P31749); assay: Inhibition of human AKT1 at 10 uM by ADP-Glo kinase assay
[14] = molecular target: Casein kinase II subunit alpha (Homo sapiens) (UniProt P68400); assay: Inhibition of human CK2a1 at 10 uM by ADP-Glo kinase assay
[15] = molecular target: Misshapen-like kinase 1 (Homo sapiens) (UniProt Q8N4C8); assay: Inhibition of human MINK at 10 uM by ADP-Glo kinase assay
[16] = molecular target: T1, Calmodulin-sensitive adenylate cyclase (Bacillus anthracis); assay: Irreversible inactivation of Bacillus anthracis edema factor pre-incubated for 90 mins followed by drug filtration by EnzChek pyrophosphate assay

Mitogen-activated protein kinase 14 (Homo sapiens), sequence (Q16539 whole entry, canonical isoform): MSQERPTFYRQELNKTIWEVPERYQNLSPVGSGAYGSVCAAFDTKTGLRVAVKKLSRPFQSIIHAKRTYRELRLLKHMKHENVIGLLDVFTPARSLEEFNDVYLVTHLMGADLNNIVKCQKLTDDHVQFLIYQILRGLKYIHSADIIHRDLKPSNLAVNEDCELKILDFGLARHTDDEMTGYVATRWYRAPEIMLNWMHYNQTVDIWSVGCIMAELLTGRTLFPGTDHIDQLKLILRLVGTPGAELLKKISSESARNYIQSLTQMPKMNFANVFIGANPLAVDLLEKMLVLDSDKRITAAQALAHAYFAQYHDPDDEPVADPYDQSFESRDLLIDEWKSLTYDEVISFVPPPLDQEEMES
Casein kinase II subunit alpha (Homo sapiens), sequence (P68400 whole entry, looked up): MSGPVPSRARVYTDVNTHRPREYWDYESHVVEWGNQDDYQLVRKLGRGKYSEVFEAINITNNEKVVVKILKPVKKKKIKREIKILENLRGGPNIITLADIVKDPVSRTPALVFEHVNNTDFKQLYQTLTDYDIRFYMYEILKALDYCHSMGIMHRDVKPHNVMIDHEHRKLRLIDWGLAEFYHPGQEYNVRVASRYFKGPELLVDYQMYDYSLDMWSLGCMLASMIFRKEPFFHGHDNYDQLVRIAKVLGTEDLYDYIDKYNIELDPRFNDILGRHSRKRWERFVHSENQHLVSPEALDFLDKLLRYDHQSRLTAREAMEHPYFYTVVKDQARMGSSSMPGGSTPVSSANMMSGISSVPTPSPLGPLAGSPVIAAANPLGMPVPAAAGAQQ
RAC-alpha serine/threonine-protein kinase (Homo sapiens), sequence (P31749 whole entry): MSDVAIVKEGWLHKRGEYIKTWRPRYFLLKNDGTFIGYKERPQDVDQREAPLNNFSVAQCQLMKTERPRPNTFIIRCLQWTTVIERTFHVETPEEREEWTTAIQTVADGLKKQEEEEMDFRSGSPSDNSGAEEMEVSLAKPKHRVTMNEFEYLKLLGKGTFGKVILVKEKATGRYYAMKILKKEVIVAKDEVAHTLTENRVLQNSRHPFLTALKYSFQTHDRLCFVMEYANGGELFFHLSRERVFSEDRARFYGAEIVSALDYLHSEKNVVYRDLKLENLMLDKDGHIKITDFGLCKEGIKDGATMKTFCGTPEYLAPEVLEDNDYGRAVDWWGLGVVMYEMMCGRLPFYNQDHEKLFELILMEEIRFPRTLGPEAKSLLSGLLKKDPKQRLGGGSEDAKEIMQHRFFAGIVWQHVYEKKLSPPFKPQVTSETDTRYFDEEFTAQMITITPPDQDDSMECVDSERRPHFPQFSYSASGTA
Misshapen-like kinase 1 (Homo sapiens), sequence (Q8N4C8 whole entry, looked up): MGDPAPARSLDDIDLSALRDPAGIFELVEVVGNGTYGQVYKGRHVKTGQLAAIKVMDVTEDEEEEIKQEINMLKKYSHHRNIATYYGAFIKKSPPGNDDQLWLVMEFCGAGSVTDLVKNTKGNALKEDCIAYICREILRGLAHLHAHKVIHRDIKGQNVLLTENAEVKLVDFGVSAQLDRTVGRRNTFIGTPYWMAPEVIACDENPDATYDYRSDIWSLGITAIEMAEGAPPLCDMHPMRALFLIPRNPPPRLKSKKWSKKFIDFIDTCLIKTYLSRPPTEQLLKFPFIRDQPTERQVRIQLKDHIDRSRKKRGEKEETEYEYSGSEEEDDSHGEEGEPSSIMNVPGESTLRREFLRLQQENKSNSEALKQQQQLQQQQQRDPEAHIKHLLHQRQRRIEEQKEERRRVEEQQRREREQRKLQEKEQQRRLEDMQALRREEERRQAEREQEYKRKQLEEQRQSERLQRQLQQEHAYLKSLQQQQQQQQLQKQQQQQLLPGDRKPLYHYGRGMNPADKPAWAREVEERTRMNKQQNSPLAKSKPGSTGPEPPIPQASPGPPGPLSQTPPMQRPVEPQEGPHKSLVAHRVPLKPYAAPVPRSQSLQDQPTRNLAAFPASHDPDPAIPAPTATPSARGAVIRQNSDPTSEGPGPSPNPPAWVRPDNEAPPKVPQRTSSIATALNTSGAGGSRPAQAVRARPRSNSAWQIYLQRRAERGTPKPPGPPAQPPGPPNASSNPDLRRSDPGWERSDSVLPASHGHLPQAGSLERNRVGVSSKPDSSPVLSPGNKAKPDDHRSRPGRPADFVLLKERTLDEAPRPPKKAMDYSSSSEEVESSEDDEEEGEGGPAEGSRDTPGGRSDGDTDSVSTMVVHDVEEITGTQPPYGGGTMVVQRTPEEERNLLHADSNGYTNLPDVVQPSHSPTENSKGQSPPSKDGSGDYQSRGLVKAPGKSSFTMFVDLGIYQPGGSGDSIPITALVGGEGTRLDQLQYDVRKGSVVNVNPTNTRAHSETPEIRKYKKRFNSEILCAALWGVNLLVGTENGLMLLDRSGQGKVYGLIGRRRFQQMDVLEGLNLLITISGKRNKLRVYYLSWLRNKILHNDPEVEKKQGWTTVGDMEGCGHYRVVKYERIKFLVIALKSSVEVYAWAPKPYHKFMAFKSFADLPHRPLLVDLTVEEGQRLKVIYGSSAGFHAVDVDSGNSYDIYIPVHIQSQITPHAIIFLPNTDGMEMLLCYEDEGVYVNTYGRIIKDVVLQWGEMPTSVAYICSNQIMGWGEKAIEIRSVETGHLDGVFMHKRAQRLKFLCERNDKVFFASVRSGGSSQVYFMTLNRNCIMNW
Casein kinase I isoform gamma-1 (Homo sapiens), sequence (Q9HCP0 whole entry, looked up, canonical isoform): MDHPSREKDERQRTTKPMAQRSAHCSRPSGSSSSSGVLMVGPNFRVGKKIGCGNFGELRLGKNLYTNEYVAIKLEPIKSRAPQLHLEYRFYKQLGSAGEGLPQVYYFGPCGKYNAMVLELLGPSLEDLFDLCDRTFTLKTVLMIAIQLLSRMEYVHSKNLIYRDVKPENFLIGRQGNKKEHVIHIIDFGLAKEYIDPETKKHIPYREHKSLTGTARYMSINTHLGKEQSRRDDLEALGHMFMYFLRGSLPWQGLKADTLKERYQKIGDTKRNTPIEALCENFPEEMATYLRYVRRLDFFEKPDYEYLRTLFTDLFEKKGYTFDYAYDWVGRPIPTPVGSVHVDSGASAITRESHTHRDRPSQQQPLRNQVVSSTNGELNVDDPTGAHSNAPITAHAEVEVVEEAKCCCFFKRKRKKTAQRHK
Casein kinase I isoform alpha (Homo sapiens), sequence (P48729 2-337 limits assumed): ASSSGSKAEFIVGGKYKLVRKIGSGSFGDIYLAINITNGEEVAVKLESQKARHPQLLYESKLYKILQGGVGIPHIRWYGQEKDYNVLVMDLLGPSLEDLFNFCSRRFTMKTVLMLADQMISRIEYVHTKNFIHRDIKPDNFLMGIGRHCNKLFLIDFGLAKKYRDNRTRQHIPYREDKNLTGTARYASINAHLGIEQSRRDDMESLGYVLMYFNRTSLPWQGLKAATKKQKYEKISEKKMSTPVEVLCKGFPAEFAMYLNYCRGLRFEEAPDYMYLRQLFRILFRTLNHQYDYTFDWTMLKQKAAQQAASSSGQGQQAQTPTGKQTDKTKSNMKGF

| SMILES | Kinact [1] | Ratio [2] | Ki [3] | Activity (RAW264.7 [4]) | CC50 at 24 h [5] | Ratio [6] | half-life at 10 µM [7] | CC50 (RAW264.7 [8]) | inhibition [9] | inhibition [10] | inhibition [11] | inhibition [12] | inhibition [13] | inhibition [14] | inhibition [15] | inhibition [16] |
| --- | --- | --- | --- | --- | --- | --- | --- | --- | --- | --- | --- | --- | --- | --- | --- | --- |
| Nc1ncnc2c1cnn2C1CCN(C(=O)c2ccc(S(=O)(=O)F)cc2)CC1 | 0.26 min⁻¹ | 86.7 | 3.7 µM | Non-Toxic | > 100 µM | 1160 | – | – | – | – | – | – | – | – | – | – |
| Cc1nc(N)c2cnn(C3CCN(C(=O)c4ccc(S(=O)(=O)F)cc4)CC3)c2n1 | 0.072 min⁻¹ | 43.3 | 2.1 µM | Non-Toxic | > 100 µM | 581 | 1.2 h | – | – | – | – | – | – | – | – | – |
| CCOC(=O)C1=C[C@]2(CC)CCCN3CCc4c(n1c1ccccc41)[C@@H]32 [VINPOCETINE] | – | – | – | – | – | – | 13.1 h | – | – | – | – | – | – | – | – | – |
| Nc1ncnc2c1ncn2C1CCN(C(=O)c2ccc(S(=O)(=O)F)cc2)CC1 | 0.01 min⁻¹ | 1.3 | 9.4 µM | Non-Toxic | > 100 µM | 18 | – | – | – | – | – | – | – | – | – | – |
| Cc1nc(N)c2ncn(C3CCN(Cc4ccc(S(=O)(=O)F)cc4)CC3)c2n1 | 0.028 min⁻¹ | 2.3 | 14.7 µM | Non-Toxic | > 100 µM | 31.2 | – | – | – | – | – | – | – | – | – | – |
| Cc1nc(N)cc(OC2CCN(C(=O)c3ccc(S(=O)(=O)F)cc3)CC2)n1 | 0.112 min⁻¹ | 5.1 | 27.6 µM | Non-Toxic | > 100 µM | 67.8 | – | – | – | – | – | – | – | – | – | – |
| Nc1cc(OCCNC(=O)c2ccc(S(=O)(=O)F)cc2)ccn1 | 0.028 min⁻¹ | 0.3 | 127 µM | Non-Toxic | > 100 µM | 3.6 | – | – | – | – | – | – | – | – | – | – |
| Nc1cc(OCc2ccc(S(=O)(=O)F)cc2)ccn1 | 0.198 min⁻¹ | 0.3 | 955 µM | Non-Toxic | – | 3.5 | – | 86 µM | – | – | – | – | – | – | – | – |
| CN[C@@H]1C[C@H]2O[C@@](C)([C@@H]1OC)n1c3ccccc3c3c4c(c5c6ccccc6n2c5c31)C(=O)NC4 | – | – | – | – | – | – | – | – | 11% | 38% | 64% | 51% | 61% | 64% | 98% | – |
| Nc1cc(OCCNCc2ccc(S(=O)(=O)F)cc2)ccn1 | 0.029 min⁻¹ | 0.7 | 49.6 µM | Non-Toxic | > 100 µM | 9.6 | – | – | – | – | – | – | – | – | – | – |
| Cc1nc(N)c2cnn(CCCNC(=O)c3ccc(S(=O)(=O)F)cc3)c2n1 | 0.121 min⁻¹ | 4.3 | 34.8 µM | Non-Toxic | > 100 µM | 58 | – | – | – | – | – | – | – | – | – | – |
| Cc1nc(N)c2cnn(C3CCN(Cc4ccc(S(=O)(=O)F)cc4)CC3)c2n1 | 0.052 min⁻¹ | 14.2 | 4.6 µM | Non-Toxic | > 100 µM | 190 | 1.2 h | – | – | – | – | – | – | – | – | – |
| Nc1cc(O[C@@H]2CCN(C(=O)c3ccc(S(=O)(=O)F)cc3)C2)ccn1 | 0.008 min⁻¹ | 0.3 | 38.9 µM | Non-Toxic | – | 3.5 | – | – | – | – | – | – | – | – | – | – |
| Nc1ncnc2c1ncn2[C@@H]1CCCN(C(=O)c2ccc(S(=O)(=O)F)cc2)C1 | 0.039 min⁻¹ | 0.5 | 96.5 µM | Non-Toxic | > 100 µM | 6.7 | – | – | – | – | – | – | – | – | – | – |
| Nc1ncnc2c1ncn2[C@@H]1O[C@H](COC(=O)c2ccc(S(=O)(=O)F)cc2)[C@@H](O)[C@H]1O | 0.015 min⁻¹ | – | 18.4 µM | Non-Toxic | > 100 µM | 13.4 | – | – | – | – | – | – | – | – | – | Dose-dependent effect |
| Nc1ncnc2c1ncn2CCCNC(=O)c1ccc(S(=O)(=O)F)cc1 | 0.012 min⁻¹ | 0.4 | 37.7 µM | Non-Toxic | > 100 µM | 5.3 | – | – | – | – | – | – | – | – | – | – |
| Nc1cc(OC2CN(C(=O)c3ccc(S(=O)(=O)F)cc3)C2)ccn1 | 0.003 min⁻¹ | 0.4 | 10.9 µM | Non-Toxic | – | 4.9 | – | – | – | – | – | – | – | – | – | – |
| Cc1nc(N)c2ncn(C3CCN(C(=O)c4ccc(S(=O)(=O)F)cc4)CC3)c2n1 | 0.062 min⁻¹ | 4.7 | 16.5 µM | Non-Toxic | > 100 µM | 62.8 | – | – | – | – | – | – | – | – | – | – |
| Nc1ncnc2c1ncn2CCOC(=O)c1ccc(S(=O)(=O)F)cc1 | 0.011 min⁻¹ | 0.5 | 25.9 µM | Non-Toxic | > 100 µM | 6.9 | – | – | – | – | – | – | – | – | – | – |
| Cc1nc(N)cc(OCCNC(=O)c2ccc(S(=O)(=O)F)cc2)n1 | 0.158 min⁻¹ | 0.7 | 286 µM | Non-Toxic | > 100 µM | 9.2 | – | – | – | – | – | – | – | – | – | – |
| Nc1cc(OCCCNC(=O)c2ccc(S(=O)(=O)F)cc2)ccn1 | 0.043 min⁻¹ | 0.6 | 88.1 µM | Non-Toxic | > 100 µM | 8.1 | – | – | – | – | – | – | – | – | – | – |
| Nc1cc(OCCCNCc2ccc(S(=O)(=O)F)cc2)ccn1 | 0.063 min⁻¹ | 0.4 | 222 µM | Non-Toxic | > 100 µM | 4.7 | – | – | – | – | – | – | – | – | – | – |
| Nc1cc(OC2CCN(C(=O)c3ccc(S(=O)(=O)F)cc3)CC2)ccn1 | 0.049 to 0.069 min⁻¹ | 0.4 to 1.4 | – | Non-Toxic | > 100 µM | 5.8 to 19.3 | 0.66 h | – | – | – | – | – | – | – | – | – |
| Cc1cc(OC2CCN(Cc3ccc(S(=O)(=O)F)cc3)CC2)cc(N)n1 | 0.02 min⁻¹ | 0.6 | 42.2 µM | Non-Toxic | > 100 µM | 7.9 | – | – | – | – | – | – | – | – | – | – |
